Our source for the IC50 values is ChEMBL document CHEMBL4190176 (Medchemcomm, 2016).

The target in the assay is T1, Bifunctional epoxide hydrolase 2 (Homo sapiens, UniProt P34913).
T1 sequence (P34913 whole entry): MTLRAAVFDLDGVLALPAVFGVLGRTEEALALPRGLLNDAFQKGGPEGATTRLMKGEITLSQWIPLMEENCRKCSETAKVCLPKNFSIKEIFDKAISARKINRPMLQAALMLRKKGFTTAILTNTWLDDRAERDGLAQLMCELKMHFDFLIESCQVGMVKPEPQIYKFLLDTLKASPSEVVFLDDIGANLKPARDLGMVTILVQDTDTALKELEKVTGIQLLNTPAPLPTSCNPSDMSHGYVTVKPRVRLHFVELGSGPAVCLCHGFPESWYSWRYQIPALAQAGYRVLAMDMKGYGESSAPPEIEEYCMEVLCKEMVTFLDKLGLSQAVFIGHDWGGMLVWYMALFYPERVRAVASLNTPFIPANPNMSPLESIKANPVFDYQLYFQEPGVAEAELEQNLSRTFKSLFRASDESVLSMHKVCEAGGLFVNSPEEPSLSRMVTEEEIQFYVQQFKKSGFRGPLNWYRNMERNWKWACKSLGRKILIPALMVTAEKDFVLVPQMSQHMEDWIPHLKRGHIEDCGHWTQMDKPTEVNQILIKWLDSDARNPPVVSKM
In words: Inhibition of recombinant human soluble epoxide hydrolase using PHOME as substrate incubated for 5 mins followed by substrate addition by fluorescence assay.

As usually defined, the IC50 is the concentration at which inhibition is half-maximal. In the case of `CCOC(=O)C1=C(c2ccccc2)NC(=O)NC1c1ccc(NC(=O)c2ccccc2)cc1` (stereo not drawn), the IC50 stood at 1.22 nM. In the case of `CCOC(=O)C1=C(c2ccccc2)NC(=O)NC1c1ccc(NC(=O)c2ccc(Cl)cc2)cc1` (stereo not drawn), the IC50 stood at 0.48 nM.

On to `CCOC(=O)C1=C(c2ccccc2)NC(=O)NC1c1ccc(NC(=O)CCC(=O)O)cc1` (stereo not drawn), for which the IC50 is 2.22 nM. `CCOC(=O)C1=C(c2ccccc2)NC(=O)NC1c1ccc(NC(=O)c2ccc(OC)cc2)cc1` (stereo not drawn): the IC50 was found to be 1.82 nM. The result for `CCOC(=O)C1=C(c2ccccc2)NC(=O)NC1c1ccc(NC(=O)c2ccc([N+](=O)[O-])cc2)cc1` (stereo not drawn) reads 2 nM; that for `CCOC(=O)C1=C(c2ccccc2)NC(=O)NC1c1ccc(NC(=O)c2ccc(F)cc2)cc1` (stereo not drawn), 0.96 nM. The result for `CCOC(=O)C1=C(c2ccccc2)NC(=O)NC1c1ccc(NC(=O)c2ccc(C)cc2)cc1` (stereo not drawn) reads 0.48 nM; that for `CCOC(=O)C1=C(c2ccccc2)NC(=O)NC1c1ccc(NC(=O)c2ccccc2C(=O)O)cc1` (stereo not drawn), 1.92 nM.
